Molecules are shown by their SMILES. Several values for one entry are separate records, joined by “and”; a condition that tells them apart may be missing. Equal values may be shown once.

The melting point is the temperature of the solid-liquid transition. Take `O=[N+]([O-])c1cc([N+](=O)[O-])c(C(Br)=Cc2ccccc2)cc1/C=C\c1ccccc1`: the melting point was 175 °C.

In turn, `Nc1ccc(Cl)cc1[N+](=O)[O-]` [4-chloro-2-nitroaniline] yielded a melting point of 116 °C.

Compound `COC(=O)CCC(C)C1CCC2C3CCC4CC(=O)CCC4(C)C3CCC12C` (stereo unspecified) [methyl 3-oxocholan-24-oate] had a melting point of 117 °C.

Consider `CC(=O)Oc1ccc(-c2ccc(OC(C)=O)cc2)cc1` [4,4'-diacetoxybiphenyl], for which the melting point came to 164 °C.

`CCCCCCCCS` [1-octanethiol] yielded a melting point of -49 °C.

As to `Cc1c2ccccc2cc2ccccc12` [9-Methylanthracene], the melting point came out at 78 °C.

Consider `CCOCCOC(C)=O` [2-ethoxyethyl acetate], for which the melting point was -62 °C.

Compound `C#CCCCCCCCC` [Dec-1-yne] had a melting point of -44 °C.

Regarding `O=[N+]([O-])c1ccc(NS(=O)(=O)c2ccccc2)cc1` [4-nitro-1-phenylsulfonamidobenzene], the melting point was found to be 138 °C.

As to `O=C1NC(=O)c2ccccc21` [phthalimide], the melting point was determined as 234 °C.

The compound `N#CC(C#N)=Nc1ccccc1` [(phenylimino)propanedinitrile] displayed a melting point of 87 °C.

Compound `FC(F)(F)c1ccc(P(c2ccc(C(F)(F)F)cc2)c2ccc(C(F)(F)F)cc2)cc1` [tris[4-(trifluoromethyl)phenyl]phosphine] returned a melting point of 74 °C.

In the case of `CCOCC` [Diethyl ether], the melting point is -116 °C.

Turning to `CC(C)(C)OC(=O)N1CCC[C@@H](O)C1` [(R)-1-boc-3-hydroxypiperidine], the melting point was found to be 47 °C.

Regarding `O=C(O)C(F)(F)F` [trifluoroacetic acid], the melting point is -15 °C.

For `CCNc1nc(Cl)nc(NCC)n1` [2-chloro-4,6-bis(ethylamino)-1,3,5-triazine], the melting point was 228 °C.

In the case of `CCOC(=O)CC(=O)OCC` [Diethyl malonate], the melting point was -50 °C.

Consider `CS(=O)(=O)Cl` [methanesulfonyl chloride], for which the melting point was -33 °C.

Regarding `O=[N+]([O-])c1cc[n+]([O-])c(Cl)c1` [2-chloro-4-nitropyridine n-oxide], the melting point came out at 154 °C.

Compound `COS(C)(=O)=O` [Methyl methanesulfonate] displayed a melting point of 20 °C.

Consider `CC(=O)c1ccccc1` [1-Phenylethanone], for which the melting point was 19 °C.

Compound `CCc1nnc(N)s1` [5-Ethyl-1,3,4-thiadiazol-2-amine] showed a melting point of 201 °C.

On to `CC(CC(=O)O)c1ccc(C(=O)O)cc1` (stereo unspecified) [4-(2-carboxy-1-methylethyl)benzoic acid], for which the melting point was found to be 225 °C.

`OC[C@H]1O[C@H](O)[C@H](O)[C@@H](O)[C@@H]1O` [alpha-D-Glucopyranose] displayed a melting point of 154 °C.

The compound `C=CCCCCCCCCCCCCC` [1-pentadecene] had a melting point of -4 °C.

`CCOC(=O)c1cccc(B(O)O)c1` [3-(ethoxycarbonyl)benzeneboronic acid] yielded a melting point of 137 °C.

`CCCCCN` [1-aminopentane] gave a melting point of -55 °C.

In turn, `CC(=O)Nc1ccc(OC(=O)c2ccccc2O)cc1` [acetaminosalol] had a melting point of 187 °C.

Consider `COc1ccc(C(C)C)cc1B(O)O` [5-isopropyl-2-methoxybenzeneboronic acid], for which the melting point was 86 °C.

As for `OB(O)c1ccsc1` [thiophene-3-boronic acid], the melting point is 167 °C.

`COc1ccc(/C(C)=C/C(C)=O)cc1` [(3E)-4-(4-methoxyphenyl)pent-3-en-2-one] gave a melting point of 53 °C.

Regarding `CCNCC` [N-Ethylethanamine], the melting point was -50 °C.

Take `CC(=O)OCc1ccccc1` [benzyl_acetate]: the melting point is -51 °C.

As for `[O-][n+]1ccccc1` [pyridine n-oxide], the melting point was 64 °C.

For `Cc1ccc(C)c(O)c1` [2,5-dimethylphenol], the melting point is 74.8 °C and 76 °C.

For the compound `NS(=O)(=O)c1cc2c(cc1Cl)NC(C1CC3C=CC1C3)NS2(=O)=O` (stereo unspecified) [Cyclothiazide], the melting point turned out to be 228 °C.

`CC(=O)c1cc(C)cc(C)c1` [3',5'-dimethylacetophenone] registered a melting point of 20 °C.

In the case of `O=C(Oc1ccccc1)c1ccccc1C(=O)Oc1ccccc1` [diphenyl phthalate], the melting point is 75 °C.

`CC=C(C)C` [2-methyl-2-butene] had a melting point of -134 °C.

For the compound `CC1C(=O)CCCC1=O` [2-methylcyclohexane-1,3-dione], the melting point was determined as 206 °C.

For `OC1CCCCC1` [cyclohexanol], the melting point amounted to 25.9 °C.

Compound `COc1ccc(C)cc1` [4-methylanisole] had a melting point of -50 °C.

As for `Cc1cc(-c2ccccc2)[nH]n1` [3-methyl-5-phenyl-1h-pyrazole], the melting point worked out at 126 °C.

`CCC(=O)O` [propanoic acid] came in with a melting point of -20.7 °C.

Turning to `Brc1ccc(Br)cc1` [p-dibromobenzene], the melting point is 88 °C.

In the case of `Brc1ccc(Oc2ccc(Br)cc2)cc1` [bis-p-bromophenyl_ether], the melting point turned out to be 60 °C.

Consider `OCc1cc2ccccc2s1` [benzo[b]thiophene-2-methanol], for which the melting point was found to be 100 °C.

Compound `Cc1c(C)n(C(N)=O)c2ccccc12` [2,3-dimethyl-1H-indole-1-carboxamide] registered a melting point of 188 °C.

`O[C@@H]1[C@H](O)[C@@H](O)OC[C@H]1O` [D-lyxose] returned a melting point of 112 °C.

`Cc1cccc(C)c1[N+](=O)[O-]` [2-nitro-1,3-dimethylbenzene] showed a melting point of 16 °C.

`Nc1ccc(-c2ccccc2)cc1` [4-aminobiphenyl] came in with a melting point of 54 °C.

Compound `Oc1ccc(-c2ccccc2)cc1` [4-phenylphenol] came in with a melting point of 166 °C.

The compound `O=C(O)CCC(=O)c1ccc(-c2ccccc2)cc1` [fenbufen] had a melting point of 186 °C.

Compound `Cc1c(Cl)c(Cl)c(Cl)c(Cl)c1Cl` [Pentachlorotoluene] yielded a melting point of 225 °C.

On to `N=C(NCCCCCCNC(=N)NC(=N)Nc1ccc(Cl)cc1)NC(=N)Nc1ccc(Cl)cc1`, for which the melting point was 134 °C.

`O=C(O)CCC(=O)O` [Succinic acid]: the melting point was 186 °C.

As to `O=C(O)c1ccccc1Nc1ccccc1` [N-phenylanthranilic acid], the melting point turned out to be 187 °C.

For the compound `O=C(O)c1ccc2c(c1)OCO2` [piperonylic acid], the melting point came out at 233 °C.

`O=C(O)c1ccccc1O` [salicylic acid]: the melting point is 158 °C and 157 °C.

As for `Oc1cccc(O)c1` [Resorcinol], the melting point is 111 °C.

`CC(C)(C)OC(=O)N[C@H](Cc1cccc(F)c1)C(=O)O` [N-boc-3-fluoro-d-phenylalanine] showed a melting point of 77 °C.

As for `N#Cc1ccncc1I` [4-cyano-3-iodopyridine], the melting point worked out at 121 °C.

For `CC(=O)N1CCN(c2ccc(OC[C@H]3CO[C@](Cn4ccnc4)(c4ccc(Cl)cc4Cl)O3)cc2)CC1` [ketoconazol], the melting point was determined as 146 °C.

For the compound `CCOc1ccc(OCC)cc1` [p-diethoxybenzene], the melting point turned out to be 72 °C.

In turn, `CCCCC#N` [Valeronitrile] had a melting point of -96 °C.

The compound `CCCCC(=O)N(Cc1ccc(-c2ccccc2-c2nnn[nH]2)cc1)C(C(=O)O)C(C)C` (stereo unspecified) [valsartan] gave a melting point of 116 °C.

The compound `Cc1c(N)cccc1N` [2,6-diaminotoluene] had a melting point of 105 °C.

Turning to `OCCSSCCO` [2-Hydroxyethyl Disulfide], the melting point is 26 °C.

`COCCOCCOC` [2-methoxyethyl_ether] yielded a melting point of -64 °C.

Compound `CC(=NNC(=O)c1ccncc1)c1ccco1` [a-Methylfurfurylidenehydrazide of Isonicotinic Acid] had a melting point of 199 °C.

`NCc1ccccc1` [Benzylamine] registered a melting point of 10 °C.

In the case of `CCOc1ccc(NC(C)=O)cc1` [phenacetin], the melting point was 138 °C and 135 °C (2×).

The compound `CCOC(=O)c1ccccc1C(=O)OCC` [diethyl phthalate] came in with a melting point of -64 °C.

Regarding `OCc1cccc(Oc2ccccc2)c1` [(3-Phenoxyphenyl)methanol], the melting point worked out at 10 °C.

Compound `Cc1ccccc1N1C(=O)c2cc(S(N)(=O)=O)c(Cl)cc2NC1C` (stereo unspecified) [Metolazone] registered a melting point of 256 °C.

`CC(=O)O[C@H]1O[C@@H](COC(=O)c2ccccc2)[C@H](OC(=O)c2ccccc2)[C@@H]1OC(=O)c1ccccc1` [1-o-acetyl-2,3,5-tri-o-benzoyl-beta-D-ribofuranose]: the melting point was determined as 129 °C.

The compound `N#CCc1ccccc1CC#N` [1,2-phenylenediacetonitrile] came in with a melting point of 59 °C.

Take `NC(=O)c1cccc(Cl)c1Cl` [2,3-dichlorobenzamide]: the melting point is 167 °C.

In turn, `CC(CCC(=O)O)C1CCC2C3C(O)CC4CC(O)CCC4(C)C3CCC12C` (stereo unspecified) [ursodiol] gave a melting point of 203 °C.

Compound `O=C5\C=C4/C(C3CCC2(C(CCC2OC(=O)c1ccccc1)C3CC4)C)(C)CC5` (stereo unspecified) [testosterone benzoate] had a melting point of 195 °C.

For the compound `CCCOC(=O)c1ccc(O)cc1` [propylparaben], the melting point stood at 97 °C.

For the compound `ClC1=C(Cl)C2(Cl)C3C(Cl)C=CC3C1(Cl)C2(Cl)Cl` (stereo unspecified) [Heptachlor], the melting point was found to be 95 °C.

`C1OCOCO1` [1,3,5-trioxane] registered a melting point of 61 °C.

In the case of `CC1=CC(=O)c2ccccc2C1=O` [2-methyl-1,4-naphthoquinone], the melting point turned out to be 106 °C.

`c1cscn1` [thiazole] yielded a melting point of -33 °C.

The compound `Cc1ccc([N+](=O)[O-])cc1Br` [2-bromo-4-nitrotoluene] gave a melting point of 76 °C.

For the compound `O=C(N[C@H](CO)Cc1ccccc1)OCc1ccccc1` [N-benzyloxycarbonyl-l-phenylalaninol], the melting point was determined as 94 °C.

On to `CC(C)c1ccccc1` [Isopropylbenzene], for which the melting point was -96 °C.

Consider `OCc1ccnc(Br)c1` [2-bromo-4-pyridinemethanol], for which the melting point stood at 61 °C.

`C(O)[C@@H](O)[C@@H](O)[C@H](O)CO` [D-arabitol] showed a melting point of 102 °C.

In turn, `COC(=O)c1ccc2[nH]nnc2c1` [methyl 1h-benzotriazole-5-carboxylate] showed a melting point of 174 °C.

Source of the values: the Bradley open melting point set (2014).
